Measured values: patent US10227349B2, “Pyrazolo[1,5-a]pyrimidine compound” (Eisai R&D Management Co., Ltd., priority 2016, dated 2019)

Assays:
PAR2 [1] = biological target: T1, PAR2 (Homo sapiens, UniProt P55085); assay: Intracellular calcium concentration measurement (trypsin-induced calcium elevation, FDSS6000); assay type: cell-based; details: HEK293 cells, trypsin 5 U/mL as agonist, test compound added 30 min before measurement; read-out: Inhibitory activity on intracellular calcium elevation (IC50 (nM))
T1 construct: Human embryonic kidney cell line HEK293 cells cultured using DMEM culture medium; endogenous in cells; host or cells: HEK293
T1 sequence (P55085 26-397): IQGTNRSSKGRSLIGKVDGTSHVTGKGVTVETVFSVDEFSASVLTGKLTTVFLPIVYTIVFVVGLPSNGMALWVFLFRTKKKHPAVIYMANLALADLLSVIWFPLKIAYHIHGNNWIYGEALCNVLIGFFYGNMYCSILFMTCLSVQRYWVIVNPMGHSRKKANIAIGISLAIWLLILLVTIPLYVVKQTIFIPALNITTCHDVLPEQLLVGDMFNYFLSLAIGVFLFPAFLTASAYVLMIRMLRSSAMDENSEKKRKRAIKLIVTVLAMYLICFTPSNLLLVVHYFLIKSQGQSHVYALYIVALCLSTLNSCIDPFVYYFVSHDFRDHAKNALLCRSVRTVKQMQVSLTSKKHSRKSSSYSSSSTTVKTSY
Source text: In the present specification, examples of the measurement method for the PAR2 inhibitory activity include measurement method for a concentration elevation of intracellular calcium; measurement method for a production increase of intracellular inositol trisphosphate; measurement method for an increase in intracellular protein phosphorylation by protein kinase C and MAP kinase; and measurement method for a production amount or a release amount of inflammation-related physiologically active substances such as cytokine, chemokine, prostaglandin and nitric monoxide. Examples of the measurement method for an elevation of intracellular calcium concentration include a method wherein a calcium-binding fluorescent probe is allowed to be incorporated in advance into a cultured cell line or an animal-derived isolated cell having PAR2, or a cell in which PAR2 is artificially expressed, a protease having the PAR2 activity function such as trypsin or a PAR2 agonist (synthetic peptides such as SLIGKV-NH2 (SEQ ID NO: 1) and SLIGRL-NH2 (SEQ ID NO: 2) is added to activate PAR2 whereby fluctuating intracellular calcium concentrations are detected as changes in the fluorescent signal. Alternatively, it is also possible to measure an intracellular calcium concentration by determining the quantity of a fluorescence intensity produced in proportion to the calcium concentration using a calcium-binding luminescent protein overexpressing cell line such as Aequorin. Specifically, examples include the methods described in Test Examples of the present specification.
Human embryonic kidney cell line HEK293 cells cultured using DMEM culture medium (Invitrogen) with 3% fetal bovine serum (3% FBS)-added was prepared to have a concentration of 2×10^5 cells/mL, and plated in a type I collagen-coated 384-well black plate (clear bottom) (Greiner) so as to be 25 μL/well and cultured in a CO2 incubator overnight. FLIPR Calcium Assay Kit (Molecular Devices) prepared with Hanks-20 mM Hepes buffer (pH 7.4) was added to the cells so as to be 25 μL/well and cultured in the CO2 incubator for 1 hour. Trypsin (SIGMA-ALDRICH, catalog number: T8816, Enzyme Commission Number 3.4.21.4) prepared so as to be 5 U/mL as final concentration (BAEE unit) with Hanks-20 mM Hepes buffer (pH 7.4) was added to a 384-well deep well polypropylene plate (Greiner) to be an agonist reagent plate. Thirty minutes before the measurement using FDSS6000 (Hamamatsu Photonics K.K.), a test compound prepared with Hanks-20 mM Hepes buffer (pH 7.4) was added to the cell so as to be 8 μL/well. The cell plate to which the test compound was added and the reagent plate were set on FDSS6000, 22 μL/well of the agonist solution was added from the reagent plate, and the change in intracellular calcium concentration was measured with a CCD camera. The measurement was carried out at 37° C. for 120 seconds and the addition of reagent from the reagent plate to the cell plate was carried out using a built-in 384-well automatic dispenser of FDSS6000.
Note that Reference Example 1 in Table 3 is the compound represented by formula (XIX) synthesized in the above Reference Example 1 (hereinafter, also referred to as Compound (XIX)). Additionally, the “Comparative Compound” in Table 3 is the compound described in Patent Literature 4 represented by the following formula (XX) (I-343; hereinafter, also referred to as Compound (XX)).

PAR2 [2] = biological target: T2, PAR2 (Mus musculus, UniProt P55086); assay: Measurement of PAR2 agonist (SLIGRL-NH2)-induced salivation in mouse; assay type: in vivo; details: C57BL/6J male mice, 0.3 mg/mL solution 10 mL/kg orally, 60 min before SLIGRL-NH2 i.p., saliva collected 10 min
T2 construct: orally administered to C57BL/6J male mice (Charles River), 6-10 weeks of age; tissue Charles River; host or cells: Living C57BL/6J male mice (in vivo; saliva secretion)
T2 sequence (P55086 26-399): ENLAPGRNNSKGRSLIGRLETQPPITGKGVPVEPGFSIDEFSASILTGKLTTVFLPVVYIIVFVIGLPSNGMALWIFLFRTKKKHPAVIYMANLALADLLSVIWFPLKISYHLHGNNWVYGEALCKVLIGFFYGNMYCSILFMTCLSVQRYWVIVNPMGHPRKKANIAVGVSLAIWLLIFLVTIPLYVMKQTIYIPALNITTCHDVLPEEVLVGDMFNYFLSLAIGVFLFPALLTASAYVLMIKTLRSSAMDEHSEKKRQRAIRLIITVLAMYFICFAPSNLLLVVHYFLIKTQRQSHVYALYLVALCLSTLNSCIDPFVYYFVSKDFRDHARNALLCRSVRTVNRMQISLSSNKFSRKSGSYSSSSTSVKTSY
Protocol: The test compound was added to a 0.5% carboxymethyl cellulose solution to which 2% DMSO was added, so as to have the final concentration of 0.3 mg/mL, thereby preparing an administration solution containing the test compound. The administration solution containing the test compound (10 mL/kg) was orally administered to C57BL/6J male mice (Charles River), 6-10 weeks of age, using an oral sonde and a syringe. Forty-five minutes after the administration of the test compound, 10 mL/kg of a 20% (w/v) urethane solution was intraperitoneal administered to the mice which were then anesthetized. Sixty minutes after the administration of the test compound, 10 mL/kg of a 0.1 mg/mL SLIGRL-NH2 (SEQ ID NO: 2) solution was intraperitoneally administered as the PAR2 agonist and a cotton ball was immediately placed in the oral cavity of the mouse to collect the saliva. Ten minutes after the administration of the PAR2 agonist, the cotton ball was removed and weighed to measure the amount of saliva secreted.
Note that Reference Example 1 in Table 4 is Compound (XIX). Additionally, Comparative Compound in Table 4 is Compound (XX).

[3] = test system: OXA-induced enteritis in BALB/c male mice; assay: Model mouse for enteritis (OXA-induced, bowel length); assay type: in vivo; details: po, 48 h, 0.1 mg/mL solution 10 mL/kg orally twice (1 hour before and day after OXA induction), length of colon and rectum two days after induction, read-out: Inhibitory activity on bowel shortening (%)
Protocol: Generally, the bowel length is known to be shorter during enteritis (Maxwell, J. R. et al. Curr. Protoc. Pharmacol. Chapter 5: Unit 5.58, 2009). The bowel length in an enteritis model was measured to evaluate the effect of the test compound.
The test compound was added to a 0.5% carboxymethyl cellulose solution so as to have a final concentration of 0.1 mg/mL, thereby preparing an administration solution containing the test compound. Hapten used was 4-ethoxymethylene-2-phenyloxazol-5-one (OXA, SIGMA-ALDRICH).
One hundred (100) μL of a solution of OXA diluted to 0.3% with ethanol was applied to the shaved abdominal region of BALB/c male mice (Charles River), 6-10 weeks of age, to create the sensitization. Five days after the sensitization, OXA was intrarectally administered to induce an enteritis reaction. More specifically, a syringe equipped with a sonde for oral administration was inserted into the anus of the mouse anesthetized by the inhalation of isoflurane at a concentration of 4-5% and 50 μL of the OXA solution adjusted to 1% with a solvent of 50% ethanol/50% distilled water was administered into the rectum.
One hour before and on the day following the induction of enteritis, the administration solution containing the test compound (10 mL/kg) was orally administered twice in total to the mice. Two days after the induction of enteritis, the mice were euthanized by cervical dislocation and subsequently the cecum to the anus was collected to measure the combined length of the colon and the rectum using a ruler, thereby evaluating the action of the test compound.
Note that Reference Example 1 in Table 6 is Compound (XIX).

SMILES	IC50 (PAR2 [1]) [nM]	Inhibitory activity on the PAR2-dependent saliva secretion (%) (PAR2 [2])	inhibition in vivo at 100 µg/mL, 1 mg/kg [3] [%]
Cc1cccc(C)c1N(C)c1cc(C2CCC(C)(C)CC2)nc2cc(C(=O)N3CC[C@@H](CC(=O)O)[C@@H](F)C3)nn12 (relative stereo) [Example 3, 2-((3R*,4S*)-1-(5-(4,4-dimethylcyclohexyl)-7-((2,6-dimethylphenyl)(methyl)amino)pyrazolo[1,5-a]pyrimidine-2-carbonyl)-3-fluoropiperidin-4-yl) acetic acid]	8.73	86.7	–
CO[C@H]1CN(C(=O)c2cc3nc(-c4ccc(F)c(Cl)c4)cc(N(C)c4c(C)cccc4C)n3n2)CC[C@H]1CC(=O)O (relative stereo) [Example 4, 2-((3R*,4S*)-1-(5-(3-chloro-4-fluorophenyl)-7-((2,6-dimethylphenyl)(methyl)amino)pyrazolo[1,5-a]pyrimidine-2-carbonyl)-3-methoxypiperidin-4-yl)acetic acid]	7.32	87.1	–
CCCN(c1cc(-c2cc(F)c(Cl)c(F)c2)nc2cc(C(=O)N3CC[C@@H](CC(=O)O)[C@@H](C)C3)nn12)C(C)C (relative stereo) [Example 18, 2-((3R*,4S*)-1-(5-(4-chloro-3,5-difluorophenyl)-7-(isopropyl(propyl)amino)pyrazolo[1,5-a]pyrimidine-2-carbonyl)-3-methylpiperidin-4-yl)acetic acid]	7.38	95.1	–
Cc1n[nH]c(C(=O)N2CCN(C(=O)c3cn4nc(-c5ccc(F)cc5)cc(C(C)(C)C)c4n3)C(C)(C)C2)n1 [Comparative Compound, reference compound]	24.2	98.0	–
CC(C)CN(c1cc(-c2cc(F)c(F)c(F)c2)nc2cc(C(=O)N(C)[C@H](C)CC(=O)O)nn12)[C@H](C)C(C)C [Example 9, (R)-3-(7-(isobutyl((R)-3-methylbutan-2-yl)amino)-N-methyl-5-(3,4,5-trifluorophenyl)pyrazolo[1,5-a]pyrimidine-2-carboxamide)butanoic acid]	4.9	96.0	–
CN(c1c(F)cccc1Cl)c1cc(-c2cc(F)c(F)c(F)c2)nc2cc(C(=O)N3CCC(CC(=O)O)CC3)nn12 [Example 17, 2-(1-(7-((2-chloro-6-fluorophenyl)(methyl)amino)-5-(3,4,5-trifluorophenyl)pyrazolo[1,5-a]pyrimidine-2-carbonyl)piperidin-4-yl)acetic acid]	3.27	94.9	–

The next lines start with results.

IC50 (PAR2 [1]) [nM]	Inhibitory activity on the PAR2-dependent saliva secretion (%) (PAR2 [2])	SMILES	inhibition in vivo at 100 µg/mL, 1 mg/kg [3] [%]
2.57	91.5	Cc1cccc(C)c1N(C)c1cc(-c2cc(F)c(F)c(F)c2)nc2cc(C(=O)N3CC[C@@H](CC(=O)O)[C@@H](F)C3)nn12 (relative stereo) [Example 1, 2-((3R*,4S*)-1-(7-((2,6-dimethylphenyl)(methyl)amino)-5-(3,4,5-trifluorophenyl)pyrazolo[1,5-a]pyrimidine-2-carbonyl)-3-fluoropiperidin-4-yl)acetic acid]	60.4
6.88	97.8	CO[C@H]1CN(C(=O)c2cc3nc(-c4ccc(Cl)c(F)c4)cc(N(C)c4c(C)cccc4Cl)n3n2)CC[C@H]1CC(=O)O (relative stereo) [Example 11, 2-((3R*,4S*)-1-(5-(4-chloro-3-fluorophenyl)-7-((2-chloro-6-methylphenyl)(methyl)amino)pyrazolo[1,5-a]pyrimidine-2-carbonyl)-3-methoxypiperidin-4-yl)acetic acid]	–
4.77	98.8	CO[C@H]1CN(C(=O)c2cc3nc(-c4cc(F)c(Cl)c(F)c4)cc(N(C)c4c(C)cccc4Cl)n3n2)CC[C@H]1CC(=O)O (relative stereo) [Example 12, 2-((3R*,4S*)-1-(5-(4-chloro-3,5-difluorophenyl)-7-((2-chloro-6-methylphenyl)(methyl)amino)pyrazolo[1,5-a]pyrimidine-2-carbonyl)-3-methoxypiperidin-4-yl)acetic acid]	–
5.08	92.5	CN(c1ccccc1Cl)c1cc(-c2cc(F)c(Cl)c(F)c2)nc2cc(C(=O)N3CC[C@@H](CC(=O)O)[C@@H](F)C3)nn12 (relative stereo) [Example 14, 2-((3R*,4S*)-1-(5-(4-chloro-3,5-difluorophenyl)-7-((2-chlorophenyl)(methyl)amino)pyrazolo[1,5-a]pyrimidine-2-carbonyl)-3-fluoropiperidin-4-yl)acetic acid]	–
